Assay results as given in patent US7368279B2, “Three dimensional bioengineered smooth muscle tissue and sphincters and methods therefor” (The Regents of The University of Michigan, priority 2004, dated 2008).

How the values were obtained:
[1] = test system: isolated smooth muscle cells from the rabbit IAS; assay: Acetylcholine-induced contraction of isolated IAS smooth muscle cells (decrease in cell length); type: cell-based; details: for contraction, percent decrease in cell length from control: 10^−7 M acetylcholine, HEPES buffer; for decrease in cell length: acetylcholine, 0 Ca2+/2 mM EGTA HEPES buffer
Source text: Smooth muscle cells were isolated from the internal anal sphincter (IAS) of New Zealand White rabbits as described previously (Bitar et al., Am J Physiol 260: G537-G542, 1991; Bitar et al., Am J Physiol 242: G400-G407, 1982). Briefly, the IAS, consisting of the most distal 3 mm of the circular muscle layer, ending at the junction of skin and mucosa, was removed by sharp dissection. The sphincter was rapidly cleaned and striped of connective tissue in ice cold carbonated Krebs solution containing 2% penicillin-streptomycin. The tissue was cut into small pieces and transferred to a 100 mm plate containing 15 ml of HEPES buffer (pH 7.4; NaCl (115 mM), KCl (5.7 mM), KH2PO4 (2.0 mM), HEPES (24.6 mM), CaCl2 (1.9 mM), MgCl2 (0.6 mM), glucose (5.6 mM), 0.01% soybean trypsin inhibitor, and 0.184 (wt/vol) DMEM) with 0.1% collagenase type II (Worthington Biochemical Corp., Lakewood, N.J.) for digestion in an incubator (37° C. with 5% CO2) for 1 hour. Fresh HEPES buffer (15 ml) with collagenase was added and the contents of the plate were mechanically dissociated using a 10 ml pipette and incubated for 1 additional hour. After the second digestion period, the cells were collected, centrifuged at 800×g for 10 minutes and the supernatant discarded. The cells were washed (3×) a to ensure removal of excess collagenase and ultimately re-suspended in either HEPES buffer or 0 Ca^2+/2 mM EGTA HEPES buffer (HEPES without CaCl2 and containing 2 mM EGTA). To determine the effect of acetylcholine on contraction of isolated muscle cells, acetylcholine (10^−7 M) was added to a suspension of isolated smooth muscle cells for 30 seconds or 4 minutes with untreated cells as controls. The reaction was stopped and cells were fixed by the addition of 0.1 ml of acrolein at a final concentration of 0.1%. Individual cell lengths were measured by computerized image micrometry (Bitar et al., Am J Physiol 242: G400-G407, 1982. Bitar et al., Science 216: 531-533, 1982). The length of cells in the control state or after addition of acetylcholine was obtained by measuring 30-50 cells encountered randomly in successive microscopic fields from each of three separate experiments. The contractile response is defined as the decrease in the average length of the cells counted and is expressed as the percent change from the control length.

[2] = test system: association of tropomyosin with HSP27 in sphincteric smooth muscle cells; assay: Immunoprecipitation/immunoblot: acetylcholine-induced association of tropomyosin with HSP27; type: cell-based, rat; details: 0.1 μM acetylcholine
Procedure: Decreased association of actin with myosin and decreased association of tropomyosin with HSP27 in sphincteric smooth muscle cells from old rats (28-33 month old) was observed when compared to adult counterparts (18 months old). Whole cell lysates (WCL) from acetylcholine (0.1 μM) stimulated and unstimulated sphincteric smooth muscle cells of adult and old rats were extracted and immunoprecipitated as described previously (Somara et al, Amer. J. Physiol. 286(6): C1290-1301, 2004). Briefly, actin was immunoprecipited using an anti-actin antibody followed by immunoblotting with an anti-myosin antibody. […] To further investigate phospho-HSP27-induced reinstatement of smooth muscle cell contractile function, sphincter smooth muscle cells isolated from old rats IAS were transfected with phosphomimic-HSP27 as described previously. Whole cells lysates were extracted and immunoprecipitated as described previously (Somara et al, Amer. J. Physiol. 286(6): C1290-1301, 2004).

[3] = test system: bioengineered colon smooth muscle rings; assay: Isometric force of bioengineered colon smooth muscle rings; type: cell-based, rabbit
Procedure: To develop a three dimensional physiological model of the smooth muscle cells in vitro, isolated colonic smooth muscle cells were used. Smooth muscle cells isolated from the colon of rabbits were seeded in a fibrin-based tissue construct as described in detail in Example 2. In this construct, the smooth muscle cells migrated and self-assembled in circumferential alignment. As the cells proliferated, the fibrin gel shrunk and contracted around a 5 mm diameter SYLGARD mold, resulting in a 3-D cylindrical ring of colonic tissue (smooth muscle ring). […] Maximal ΔP induced by acetylcholine stimulation was 17.8 μN, resulting in a specific force (sΔP) of […].

CC(=O)OCC[N+](C)(C)C [acetylcholine]
contraction, percent decrease in cell length from control ([1]; 30 seconds): 28.85±3.20%
contraction, percent decrease in cell length from control ([1]; 4 minutes): 27.09±4.43%
decrease in cell length ([1]; 30 seconds): 0.5±4.47%
decrease in cell length ([1]; 4 minutes): 4±3.91%
acetylcholine-induced association of tropomyosin with HSP27 ([2]; adult rats, 30 seconds): 218.67±5.48%
acetylcholine-induced association of tropomyosin with HSP27 ([2]; adult rats, 4 minutes): 268.39±6.38%
acetylcholine-induced association of tropomyosin with HSP27 ([2]; old rats, 30 sec): 149.93±8.60%
acetylcholine-induced association of tropomyosin with HSP27 ([2]; old rats, 4 minutes): 223.21±7.46%
maximal ΔP induced by acetylcholine stimulation [3]: 17.8 μN
